# Data from the METLIN SMRT retention time set (Domingo-Almenara et al. 2019).
# Experiment: gradient 5% acetonitrile 3 min, to 50% in 2 min, to 85% in 15 min, held 3 min, 100 µL/min
# Conditions: column: Zorbax Extend-C18 2.1 x 50 mm; eluents: water / acetonitrile, 0.1% formic acid
# Outline: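 Retention times of pure standards were taken from adduct peaks that were selected by computer and manually inspected. Over 3 months, mixtures of ~100 molecules were run by HPLC–quadrupole time-of-flight mass spectrometry in positive and negative ionization mode. The Zorbax Extend-C18 column (2.1 × 50 mm, 1.8 μm) ran at 100 μL/min in water and acetonitrile, each containing 0.1% formic acid, with 40 μL dead volume and 900 μL dwell volume.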
row,SMILES,RP-LC retention time
1,COc1cccc(NC(=O)NCC(c2cccnc2)c2c[nH]c3ccccc23)c1 (configuration not stated),662 s
2,CSc1cccc(NC(=O)NCCNc2nc(C)cc(N(C)C)n2)c1,583 s
3,CCC(C)C(NC(=O)CCc1ccc(OC)cc1)C(=O)Nc1nc2ccccc2[nH]1 (configuration not stated),734 s
4,COc1ccc(SCCc2ccncc2)cc1,662 s
5,CCCCNC(=O)c1ccc2c(c1)NC(=O)C(CC(C)C)N2 (configuration not stated),754 s
6,COc1ccc(OC)c(-c2[nH]ncc2CN2CC(F)(F)C[C@H]2CN2CCCCC2)c1,632 s
7,CCN1CCc2c(sc(-n3cccc3)c2CNC(=O)Nc2cc(C)ccc2OC)C1,718 s
8,Cc1nc2cc(-c3noc(-c4ccc(Cl)cc4)n3)ccc2o1,1210 s
9,Cc1ccc(C2CCCN2C(=O)c2cc(-c3ccco3)on2)cc1 (configuration not stated),1020 s
10,O=C(NCCc1csc(-c2cccs2)n1)C1CCN(C(=O)c2cccc(Cl)c2)CC1,839 s
11,CC1(O)CCOC2(CCN(Cc3ccccc3OC(F)(F)F)CC2)C1 (configuration not stated),632 s
12,Cc1ccc2c(=O)c(C(=O)N3CCCC3)cn(CC(=O)Nc3ccc(C)c(C)c3)c2n1,733 s
13,O=C(CN1C(=O)CSc2ccc(C(=O)N3CCCCC3)cc21)NCCN1CCCCC1,612 s
14,COc1cccc(COc2cn(C)c(C(=O)N3CCN(c4ncccn4)CC3)cc2=O)c1,605 s
15,Cc1ccc(NS(=O)(=O)c2c(C)c(-c3nnc(C4CCC4)o3)n(C)c2C)cc1,918 s
16,C[C@H]1CN(C(=O)C2(c3ccccc3)CC2)C[C@@H]1c1nc(-c2cccnc2)no1,827 s
17,O=C(c1cccs1)N1CC(Oc2ccc(-c3nc(-c4ccccc4)no3)cc2)C1,1170 s
18,CCOc1cc(C(=O)Nc2ccc(-c3cn4cccnc4n3)cc2)cc(OCC)c1OCC,759 s
19,CCCn1cc(CCNS(=O)(=O)c2ccc(C)cc2)c2cccnc21,841 s
20,Cc1ccc(NC(=O)CSc2ccc(N3CCCC(C(=O)NC4CC4)C3)nn2)cc1 (configuration not stated),659 s
21,Cc1ccc(OCC(=O)Nc2cncc(-c3nc4ccccc4o3)c2)cc1,1010 s
22,COC(=O)c1ccc2c(=O)n(-c3ccc(F)cc3)c(N3CCN(c4ccccn4)CC3)nc2c1,660 s
23,CCOc1ccc(-c2noc(CN3C(=O)COc4ccccc43)n2)cc1OC,968 s
24,CC(=O)Nc1ccc(C)cc1S(=O)(=O)N1CCC2(CC1)Nc1ccc(C)c(C)c1-n1cccc12,1070 s

row,SMILES,RP-LC retention time
1,CCc1nn(C)c(=O)c2cc(S(=O)(=O)NCc3ccccc3F)cn12,860 s
2,CCn1c(=O)c2c(cc(C)n2C)n(CC(=O)Nc2cc(Cl)ccc2OC)c1=O,888 s
3,O=C1NCCCCCCN(Cc2ccncc2)[C@@H]2CN(C3CCC3)CC[C@H]12,559 s
4,CCN1C(=O)COc2ccc(-c3noc(-c4cccc(Cl)c4)n3)cc21,1250 s
5,COc1ccc(Cl)cc1NC(=O)C1CCN(S(=O)(=O)c2ccc3c(c2)NC(=O)C(C)O3)CC1 (configuration not stated),946 s
6,COc1cccc(NC(=O)Cn2cnc3nc(N4CCC(C(=O)NC5CC5)CC4)sc3c2=O)c1,658 s
7,COc1cccc(OC)c1OCC(O)CN1CCN(c2cc(Cl)ccc2C)CC1 (configuration not stated),615 s
8,COc1ccc(-c2cc(=O)c3cc(OC(=O)c4ccncc4)ccc3o2)cc1,832 s
9,CN1CCN(C2Cc3ccccc3Sc3ccc(Cl)cc32)CC1 (configuration not stated),872 s
10,CN(C)CCc1c[nH]c2ccc(CS(=O)(=O)N3CCCC3)cc12,629 s
11,Cc1cccc(N2CCN(c3cc(C)nc4c(-c5ccccc5)cnn34)CC2)n1,738 s
12,CCn1cc(-c2nc(C(=O)NCc3ccc(F)c(Cl)c3)cs2)c2cccnc21,1050 s
13,COc1ccc(NC(=O)N(Cc2nnc3n2CCCCC3)c2cccc(OC)c2)cc1,700 s
14,COc1ccccc1-c1cc2c(=O)n(Cc3nc(-c4ccccc4)oc3C)ccn2n1,1120 s
15,Cc1cnc(C2CN(C(=O)C3(C)CCCCC3)C2)n1Cc1ccncc1,566 s
16,O=S(=O)(Nc1ccc(Oc2nc3ccccc3n3cnnc23)cc1)c1cccc2nsnc12,755 s
17,CC(C)CNC(=O)c1ccc2c(c1)Sc1ncccc1C(=O)N2C(C)C,805 s
18,O=C(NC1(c2nc(-c3ccccc3)no2)CCCCC1)c1ccccc1F,1100 s
19,Cc1ccc(C(=O)NC2CCN(c3cc(-c4cccs4)[nH]n3)C2)c(C)c1 (configuration not stated),742 s
20,CCOc1ccc(OCC)c(NS(=O)(=O)c2cc(-c3c(C)noc3NC(C)=O)ccc2OC)c1,864 s
21,COC1CN(c2cccc(F)c2)C12CCN(Cc1ccc(C)o1)CC2 (configuration not stated),745 s
22,COC(=O)c1cccc(NC(=O)Nc2ccc3c(c2)N(C(=O)c2ccccc2)CC3)c1,921 s
23,N#Cc1ccc(NC2c3ccccc3CC2O)cc1 (configuration not stated),822 s
24,COc1ccc(OC)c(S(=O)(=O)N2CCn3c(nn(CC4CC4)c3=O)C2)c1,734 s

# Results, then the compound that gave them:
row,RP-LC retention time,SMILES
1,876 s,O=C(Cn1nc2ccc(-c3ccc(Cl)cc3)nn2c1=O)N1CCN(c2ccc(F)cc2)CC1
2,1130 s,COC(=O)c1ccccc1NC(=O)CSc1cc(-n2nc(C)cc2C)ncn1
3,1060 s,COc1ccc(-c2nc(-c3cccc(-c4ccn[nH]4)c3)no2)c(C)c1
4,834 s,Cc1ccc(-n2nc(N3CCN(C(=O)Nc4cc(F)ccc4F)CC3)ccc2=O)cc1
5,750 s,CN1CCN(c2c(F)cc(C(=O)Nc3nc(-c4ccccc4)cs3)c(F)c2F)CC1
6,644 s,CC(CCNC(=O)c1nnc(-c2ccc(S(=O)(=O)N3CCCC3)cc2)o1)N1CCCCCC1 (configuration not stated)
7,1110 s,COc1nc2ccccc2nc1N1CCCC(C(=O)N2CCC(C)CC2)C1 (configuration not stated)
8,1190 s,COc1cc2c(cc1CC=C(C)C)C(=O)C[C@@H](c1ccc(O)cc1)O2
9,887 s,CC(=O)Nc1ccc(NC(=O)COc2cc(C)nc(-c3ccc(C(F)(F)F)cc3)n2)cc1
10,599 s,CCOC(=O)c1noc2ncnc(NCCCN3CCN(c4ccc(F)cc4)CC3)c12
11,795 s,CC(=O)Nc1ccc(C2(C(=O)NCc3ccc(F)c(Cl)c3)CCC2)cc1
12,879 s,COc1ccc2nc(C(=O)NCc3ccc(Br)cc3)cn2n1
13,580 s,O=C(c1ccncn1)N1CC(n2cnnc2C2CCCO2)C1 (configuration not stated)
14,668 s,COc1ccc(NC(=O)Nc2ccc(C)n(CC(=O)O)c2=O)cc1
15,839 s,O=C(Cn1nc(N2CCOCC2)c2ccccc2c1=O)Nc1ccc(F)cc1
16,890 s,CC12CCC(C(=O)Nc3ccc(Cl)cn3)(OC1=O)C2(C)C (configuration not stated)
17,1010 s,CCN(Cc1ccccc1)C(=O)c1noc2c1CCCC2
18,875 s,Cn1cc2c3c(cccc31)CN(C(=O)c1ccccc1F)CC2
19,882 s,O=C(CN1C(=O)C2CCCCN2c2ccc(S(=O)(=O)N3CCCC3)cc21)NCc1cccs1 (configuration not stated)
20,1020 s,Cc1c(-c2ccccc2)n(O)[n+]([O-])c1-c1ccccc1

row,RP-LC retention time,SMILES
1,1090 s,CC(NC(=O)C1CCCN(C(=O)c2cc3sccc3n2C)C1)C12CC3CC(CC(C3)C1)C2 (configuration not stated)
2,634 s,CC(Oc1ccc(-c2cnc3ccccc3n2)cc1)C(=O)NCCN(C)C (configuration not stated)
3,1090 s,Cc1cc(C)c(S(=O)(=O)N2CCc3c(c(-c4nnc(-c5ccccc5)o4)nn3C)C2)c(C)c1
4,550 s,Cc1scc2nc(C(=O)N3CCN(C4CCCC4)CC3)nc(N3CCCC3)c12
5,834 s,CN1C(=O)c2cc(C(=O)N3CCN(c4ccccc4F)CC3)nn2CC1(C)C(=O)NC1CCCCC1 (configuration not stated)
6,863 s,CCN1c2cc(Cl)ccc2C(=O)NC12CCN(C(=O)NCCc1ccccc1)CC2
7,831 s,CN(C)S(=O)(=O)c1ccc(-c2nnc(C(=O)NCc3ccccc3)o2)cc1
8,633 s,Fc1ccc(N2CCN(c3nnc(SCc4cccnc4)s3)CC2)cc1
9,691 s,O=C(c1nc(Cn2cnc3ccccc3c2=O)no1)N1CCN(Cc2ccc3c(c2)OCO3)CC1
10,1020 s,O=C(Cn1cccc1-c1nnc(-c2ccccc2)o1)N1CCc2ccccc21
11,895 s,COc1ccc(-c2nc(C)cc3nn(CC(=O)Nc4ccc(C)c(C)c4)c(=O)n23)cc1
12,843 s,O=c1n(Cc2nc(-c3ccc4c(c3)OCO4)no2)nc2ccc(-c3ccccc3)nn12
13,959 s,Cc1cc(NC(=O)NCC(=O)N2CCc3ccccc32)ccc1Br
14,827 s,Cc1nnc(-c2cn(CC(=O)NCCCc3ccccc3)c3ccccc23)o1
15,930 s,COc1ccc(OCC(=O)N2CCCC2c2nc(-c3ccccc3)no2)cc1 (configuration not stated)
16,657 s,COc1cccc(NC(=O)N2CCN(c3cc(C)nc(N4CCCC4)n3)CC2)c1
17,1130 s,CCc1nc(-c2cc(S(=O)(=O)N3CCC(C(=O)NC4CCCCCCC4)CC3)c(C)s2)no1
18,1030 s,O=C1CC(c2nc(-c3cccc(Cl)c3)no2)CN1c1ccc(F)cc1 (configuration not stated)
19,748 s,O=C(NCc1ccc(F)cc1)c1cn(-c2ccc(NC(=O)C3CC3)cn2)cn1
